Laboratory results as given in patent US20220290196A1, “GENETICALLY ENGINEERED MICROBES AND BIOSYNTHETIC METHODS” (The Regents of the University of California, priority 2019, published 2022).
Values joined by “and” are separate entries in the source; they are usually repeats but may differ in a detail not shown here. Identical values can stand only once. Like-named read-outs stand apart in the source and are kept apart here.

What was measured:
[1] = system: Tar14; experiment: Tar14 in vitro halogenation assay with substrate analogues; format: biochemical, Saccharomonospora sp. CNQ-490
Protocol: Tar14. Tar14 reaction mixture of total volume 100 μL in 1.5 mL Eppendorf tube was composed of the following components:
Buffer (10 mM Tris, 10% glycerol, pH 7.6): up to 100 μL

[2] = system: Tar13; experiment: Tar13 in vitro assay with substrate analogues; format: biochemical, Saccharomonospora sp. CNQ-490
Protocol: Tar13. Upon testing different reaction compositions (buffers, concentration of ascorbic acids and hemin, pH), the following conditions were found as optimal:
Buffer: up to 50 μL (50 mM Tris, 500 mM NaCl 10% glycerol, pH 8.0)
(§1) In a separate Eppendorf tube premix:
Add substrate solution to the enzyme mixture to start reaction
When Tar13 was directly added to the enzyme reaction, immediate protein precipitation occurred. The same was observed if the enzyme was not pre-mixed with hemin and ascorbic acid. Full substrate conversion was achieved after overnight incubation at 30° C. in 1.5 mL Eppendorf tube with shaking. The reactions were quenched by addition of equal volume of HPLC grade methanol.

[3] = system: Tar16; experiment: Coupled Tar13/Tar16 assay (Tar16 substrate generated in situ by Tar13); format: biochemical, Saccharomonospora sp. CNQ-490; details: substrates generated in situ by Tar13; Tar16 10 μM; overnight at 30° C.
Protocol: Coupled Tar13 Tar]6. The reaction mixture of total volume 100 μL in 1.5 mL Eppendorf tube was composed of the following components:
Buffer: up to 50 μL (50 mM Tris, 500 mM NaCl 10% glycerol, pH 8.0
Substrate (for Tar13 enzyme): 0.25 μM
as §1
Buffer: up to […] (50 mM Tris, 500 mM NaCl 10% glycerol, pH 8.0)
Add substrate solution to the enzyme mixture to start reaction.
No difference in conversion was observed when Tar16 was added into the assay mixture either together with Tar13, or after 2 h of incubation at 30° C., or after overnight incubation at 30° C., followed by another 4 h of incubation after addition of Tar16. Therefore, for convenience, all components were mixed at the same time point, the reactions were incubated at 30° C. overnight, after which the assays were quenched by addition of equal volume of HPLC grade methanol.

[4] = system: S. coelicolor M1146-tarM1Δtar14; experiment: Feeding/chemical complementation experiment, incorporation into taromycin; format: cell-based, Streptomyces coelicolor; details: incorporation at residue-1 and residue-13; analogue fed at 2 mM; judged by comparison to taromycin yields by S. coelicolor M1146-tarM1
Protocol: For taromycin production, seed culture in TSBY medium was inoculated with corresponding S. coelicolor spore suspension (collected from fresh SFM plates) and was cultured for 36-48 h till a dense creamy consistency was reached. Kanamycin at 10 μg mL^−1 final concentration was added to the seed cultures of S. coelicolor M1146-pCAP01-tarM1 and S. coelicolor M1146-pCAP01-tarM1Δtar14. Inocula of seed culture (5%, v/v) were used for fermentation in MP medium (1% glucose, 1% soluble starch, 0.4% peptone, 0.3% yeast extract, 0.3% soytone, 0.2% meat extract, 0.2% CaCO3, and 0.5% NaCl, pH 7.2). Fermentation was carried out at 30° C. and 220 rpm in a rotary incubator for 6 days. A maximum of 40 mL of production medium was added into 250 mL flask with metal springs.
S. coelicolor M1146-pCAP01-tarM1Δtar14 cultures were grown as described in Section 3 for taromycin production. After 18 and 36 h of cultivation, tryptophan analogues in the form of water suspension were added to the production cultures to a final concentration 2 mM. The cultures were further incubated for 5 days before extraction and further analysis by LC-HRMS^n. All experiments were repeated independently twice with three replicates for each compound. In parallel, cultures of S. coelicolor M1146-pCAP01-tarM1 and S. coelicolor M1146-pCAP01-tarM1Δtar14 were grown as controls.
To analyze production of taromycins and analogues, solid phase extraction of the culture supernatants was performed with Amberlite XAD-16 resin (SIGMA). For analytical purposes around 1 g of washed and equilibrated resin was added to 20 mL of supernatant followed by shaking for 30-60 min. Samples were then spun down and decanted. The resin was washed twice with water (15 mL), before elution with methanol (5 mL). The methanol extracts from the resin were used for LCMS analysis without additional concentration step.

[5] = system: Tar13 Tar14 Tar16; experiment: One-pot Tar13/Tar14/Tar16 conversion of L-Trp to L-4-Cl-Kyn; format: biochemical, Saccharomonospora sp. CNQ-490
Protocol: Buffer: up to 100 μL (50 mM Tris, 500 mM NaCl (or KBr) 10% glycerol, pH 8.0)
(§2) Tar14 (added last): 2.5 μM
Incubate 45 min at 30° C., followed by addition of premixed:
Buffer: up to 50 μL (50 mM Tris, 500 mM NaCl (or KBr) 10% glycerol, pH 8.0)
The reactions were incubated at 30° C. overnight, after which the assays were quenched by addition of equal volume of HPLC grade methanol and frozen at −70° C. till further analysis by LCMS.

[6] = Deformylation of N-formyl-L-4-Cl-Kyn on purification/lyophilization; format: physicochemical; details: mildly acidic purification conditions / after lyophilization
Protocol: N-formyl-L-4-Cl-kynurenine (10): The Tar13 biochemical assay was scaled to 57.6 mL (six 96 well plates with 100 μL reaction mixture as described in section 8 in each well). After overnight incubation, the assays were pooled together, frozen on dry ice, and lyophilized. The dried sample was redissolved in a 4000 μL of water/methanol (1/1) mixture and subjected to purification by preparative HPLC using method 8. Organic solvent from combined fractions (checked by direct injection into the Bruker Ion Trap mass spectrometer) was removed by evaporation at reduced pressure and the aqueous sample was frozen following by lyophilization. Due to the presence of closely eluting impurities, further purification step using semi-preparative HPLC and method 6 was used. The target peak was collected manually. After removing organic solvent under reduced pressure and lyophilization, the desired product 10 (1.8 mg) was obtained.

[7] = biological target: T1, Saccharomonospora sp. CNQ-490 Tar14 (flavin-dependent tryptophan halogenase), wild type, SEQ ID NO: 3 (expressed SEQ ID NO: 4); expressed with cleaved His tag SE (Saccharomonospora piscinae, UniProt W5VG40); experiment: Kinetic characterization of Tar14-catalyzed chlorination of L-tryptophan; format: biochemical; details: Tar14, L-Trp chlorination, 30° C., pH 7.6
T1 construct: flavin reductase Tar15 and PtdH as helper enzymes
T1 sequence (W5VG40 1-534): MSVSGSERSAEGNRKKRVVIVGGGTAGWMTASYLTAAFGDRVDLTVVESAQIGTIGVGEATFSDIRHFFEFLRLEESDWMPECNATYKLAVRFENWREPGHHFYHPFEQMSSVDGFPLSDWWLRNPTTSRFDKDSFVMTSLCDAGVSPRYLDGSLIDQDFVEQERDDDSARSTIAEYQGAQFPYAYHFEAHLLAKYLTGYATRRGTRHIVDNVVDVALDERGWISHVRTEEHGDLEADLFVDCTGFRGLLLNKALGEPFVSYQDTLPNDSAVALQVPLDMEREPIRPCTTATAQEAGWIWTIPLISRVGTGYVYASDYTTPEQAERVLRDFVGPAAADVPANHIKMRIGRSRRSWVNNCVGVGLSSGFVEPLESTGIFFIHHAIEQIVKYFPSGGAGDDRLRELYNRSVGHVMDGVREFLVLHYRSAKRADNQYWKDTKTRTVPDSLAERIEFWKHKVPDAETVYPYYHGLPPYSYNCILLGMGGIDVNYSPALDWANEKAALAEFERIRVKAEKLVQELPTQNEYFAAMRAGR
Source text: (§3) To determine kinetic parameters for Tar14-catalyzed chlorination of L-tryptophan, phenol was first tested as an internal standard for quantification of the product (L-6-chlorotryptophan) formation. An HPLC method that gives separation of substrate/product/internal standard peaks (method 4) was developed (FIGS. 10A and 108). It was also verified that activity of Tar14 was not affected by the presence of phenol in the reaction mixture. Using commercial standard of L-6-chlorotryptophan and phenol mixed at known concentrations, a calibration curve was built (FIGS. 10A and 10B).
(§4) Tar14 reaction mixture of total volume 100 μL in 1.5 mL Eppendorf tube was composed of the following components:
(§5) Buffer (10 mM Tris, 10% glycerol, pH 7.6) up to 100 μL
as §2
(§6) The reactions were incubated at 30° C. for 5, 10, 25, 45, 60, 120, and 240 min, after which the assays were quenched by addition of equal volume of HPLC grade methanol and frozen at −70° C. till further analysis by HPLC. All assays were performed in triplicates for each substrate concentration and every time point. In parallel, for each time point and substrate concentration, assays with no added phenol and with no added enzyme were used as controls.
(§7) Product formation was quantitated by calculating the ratio of peak areas of product to internal standard and fitting that value to a calibration curve. […]

[8] = system: Streptomyces violaceusniger SPC6 Th-Hal (C6 tryptophan halogenase), SEQ ID NO: 38; details: cited from earlier work
[9] = system: Streptomyces toxytricini NRRL 15443 SttH (tryptophan halogenase), SEQ ID NO: 39; details: cited from earlier work
[10] = system: Lechevalieria aerocolonigenes ATCC 39243 RebH (tryptophan halogenase), SEQ ID NO: 44; details: cited from earlier work
[11] = system: Streptomyces rugosporus LL-42D005 PyrH (C5 tryptophan halogenase), SEQ ID NO: 36; details: cited from earlier work
[12] = system: Pseudomonas fluorescens PrnA (tryptophan halogenase), SEQ ID NO: 43; details: cited from earlier work
[13] = system: Kutzneria sp. 744 KtzR (tryptophan halogenase), SEQ ID NO: 40; details: cited from earlier work
[14] = substrate: N[C@@H](Cc1c[nH]c2ccccc12)C(=O)O; experiment: Kinetic characterization of Tar14-catalyzed chlorination of L-tryptophan; format: biochemical, Saccharomonospora sp. CNQ-490; details: other: Tar14, L-Trp chlorination, 30° C., pH 7.6
Source text: as §3, §4, §5, §2, §6, §7

For `N[C@@H](Cc1c[nH]c2ccccc12)C(=O)O` [Compound 4, L-tryptophan], the “Enzyme assays, % conversion, Tar14, Br^−” value ([1]; KBr 100 mM, substrate 0.25 mM, Tar14 5 μM, 30° C., 4 h) was 100%, the “Enzyme assays, % conversion, Tar14, Cl^−” value ([1]; NaCl 100 mM, substrate 0.25 mM, Tar14 5 μM, 30° C., 4 h) was 100% and the “Iodination by Tar14” value ([1]; incubated with iodide) was “No iodinated tryptophan products were detected”. The “Conversion/activity as substrate for Tar13” value [2] was “only trace activity”, the “Enzyme assays, % conversion, Tar13” value ([2]; substrate 0.25 mM, Tar13 20 μM, overnight at 30° C.) was 15% and the “Enzyme assays, % conversion, Tar16” value [3] was 100%. For the same molecule, the “Feeding, % incorporation, A1 + A13 domain” value [4] was under 5% and the “Production of L-4-Cl-Kyn from L-Trp in one-pot reaction” value [5] was “below 1%”.

For `N[C@@H](CC(=O)c1ccc(Cl)cc1NC=O)C(=O)O` [Compound 10, N-formyl-L-4-Cl-kynurenine], the “Stability: deformylation to L-4-Cl-Kyn (1)” value [6] was “partial deformylation”.

For `N[C@@H](Cc1c[nH]c2ccccc12)C(=O)O` [L-Trp, L-tryptophan], the kcat [7] is listed as 0.0067 s⁻¹ and 0.007 ± 0.00083 s⁻¹, the Km ([8]; 30° C.) is listed as 12.2 ± 1.8 µM and the kcat ([8]; 30° C.) is listed as 0.0717 ± 0.0083 s⁻¹. For the same molecule, the Km ([8]; 45° C.) was 20.4 ± 1.3 µM, the kcat ([8]; 45° C.) was 0.085 ± 0.0067 s⁻¹ and the Km [9] was 25.3 ± 3.2 µM. For the same molecule, the kcat [9] was 0.0283 ± 0.0017 s⁻¹, the Km [10] was 28.7 ± 1.3 µM and the kcat [10] was 0.01 ± 0.0017 s⁻¹. The Km [11] was 15.2 ± 4.2 µM, the kcat [11] was 0.04 ± 0.0067 s⁻¹ and the Km [12] was 20.7 ± 0.1 µM. For the same molecule, the kcat [12] was 0.0183 ± 0.0017 s⁻¹, the Km [13] was 34.1 ± 2.1 µM and the kcat [13] was 0.0067 ± 0.0017 s⁻¹.

B1: Saccharomonospora sp. CNQ-490 Tar14 (flavin-dependent tryptophan halogenase), wild type, SEQ ID NO: 3 (expressed SEQ ID NO: 4; expressed with cleaved His tag … (protein)
chain: MSVSGSERSAEGNRKKRVVIVGGGTAGWMTASYLTAAFGDRVDLTVVESAQIGTIGVGEATFSDIRHFFEFLRLEESDWMPECNATYKLAVRFENWREPGHHFYHPFEQMSSVDGFPLSDWWLRNPTTSRFDKDSFVMTSLCDAGVSPRYLDGSLIDQDFVEQERDDDSARSTIAEYQGAQFPYAYHFEAHLLAKYLTGYATRRGTRHIVDNVVDVALDERGWISHVRTEEHGDLEADLFVDCTGFRGLLLNKALGEPFVSYQDTLPNDSAVALQVPLDMEREPIRPCTTATAQEAGWIWTIPLISRVGTGYVYASDYTTPEQAERVLRDFVGPAAADVPANHIKMRIGRSRRSWVNNCVGVGLSSGFVEPLESTGIFFIHHAIEQIVKYFPSGGAGDDRLRELYNRSVGHVMDGVREFLVLHYRSAKRADNQYWKDTKTRTVPDSLAERIEFWKHKVPDAETVYPYYHGLPPYSYNCILLGMGGIDVNYSPALDWANEKAALAEFERIRVKAEKLVQELPTQNEYFAAMRAGR
notes: flavin reductase Tar15 and PtdH as helper enzymes
Work on B1 yielded a Km [14] of 12.0 ± 1.9 µM.
